Test results reported in patent publication US4073926A, “Mono-quaternary ammonium salts of hydantoin and compositions thereof” (Glyco Chemicals, Inc., priority 1976, dated 1978).
Where two headings read alike, the source gives them in different places.

What was measured:
Format in all cases: cell-based
[1] = test system: Staphylococcus aureus No. 6538; test: Serial dilution anti-bacterial test in BBL Trypticase Soy Broth; design: Test Culture and Results Staphyloccus aureus # 6538: key: -: Denotes no test; +: Denotes growth; 0: Denotes no growth; conditions: for MIC: Staphylococcus aureus, read-out: Minimum Inhibitory Centration
Protocol: (§1) The product compound of the Example 1 was tested for anti-bacterial and anti-fungal activity and compared to the known commercial broad spectrum bactericide/fungicide, according to the following procedure.
(§2) Samples of the compound were prepared for testing by making a stock solution in sterile distilled water containing 10,000 parts per million. Serial dilutions of each sample were prepared in appropriate culture media which were then innoculated with the test cultures and incubated. The tests employing bacteria were performed in BBL Trypticase Soy Broth incubated for 48 hours at 35° C. The tests employing A. niger were performed in Difco Sabouraud Dextrose Broth incubated for 5 days at 26° C.
(§3) The test cultures were Staphylococcus aureus No. 6538, Pseudomonas aeruginosa No. 9027 and Aspergillus niger No. 16404.

[2] = test system: Pseudomonas aeruginosa No. 9027; test: as above; conditions: for MIC: Pseudomonas aeruginosa, read-out: Minimum Inhibitory Centration; on Test Culture and Results Pseudomonas aeruginosa # 9027: key: -: Denotes no test; +: Denotes growth; 0: Denotes no growth
Protocol: as §1, §2, §3

[3] = test system: Aspergillus niger No. 16404; test: Serial dilution anti-fungal test in Difco Sabouraud Dextrose Broth; design: Test Culture and Results Aspergillis niger # 16404: key: -: Denotes no test; +: Denotes growth; 0: Denotes no growth; conditions: for MIC: Aspergillus niger, NO.16404, 120 h, read-out: Minimum Inhibitory Centration
Protocol: as §1, §2, §3

[4] = 100 parts per million, 48 hours at 35° C
[5] = 200 parts per million, 48 hours at 35° C
[6] = 300 parts per million, 48 hours at 35° C
[7] = 400 parts per million, 48 hours at 35° C
[8] = 500 parts per million, 48 hours at 35° C
[9] = 600 parts per million, 48 hours at 35° C
[10] = 700 parts per million, 48 hours at 35° C
[11] = 800 parts per million, 48 hours at 35° C
[12] = 900 parts per million, 48 hours at 35° C
[13] = 1000 parts per million, 48 hours at 35° C
[14] = 100 parts per million, 5 days at 26° C
[15] = 200 parts per million, 5 days at 26° C
[16] = 300 parts per million, 5 days at 26° C
[17] = 400 parts per million, 5 days at 26° C
[18] = 500 parts per million, 5 days at 26° C
[19] = 600 parts per million, 5 days at 26° C
[20] = 700 parts per million, 5 days at 26° C
[21] = 800 parts per million, 5 days at 26° C
[22] = 900 parts per million, 5 days at 26° C
[23] = 1000 parts per million, 5 days at 26° C

Structure (SMILES)	Test Culture and Results Staphyloccus aureus # 6538 [1, 4]	Test Culture and Results Staphyloccus aureus # 6538 [1, 5]	Test Culture and Results Staphyloccus aureus # 6538 [1, 6]	Test Culture and Results Staphyloccus aureus # 6538 [1, 7]	Test Culture and Results Staphyloccus aureus # 6538 [1, 8]	Test Culture and Results Staphyloccus aureus # 6538 [1, 9]	Test Culture and Results Staphyloccus aureus # 6538 [1, 10]	Test Culture and Results Staphyloccus aureus # 6538 [1, 11]	Test Culture and Results Staphyloccus aureus # 6538 [1, 12]	Test Culture and Results Staphyloccus aureus # 6538 [1, 13]	Test Culture and Results Pseudomonas aeruginosa # 9027 [2, 4]	Test Culture and Results Pseudomonas aeruginosa # 9027 [2, 5]	Test Culture and Results Pseudomonas aeruginosa # 9027 [2, 6]	Test Culture and Results Pseudomonas aeruginosa # 9027 [2, 7]	Test Culture and Results Pseudomonas aeruginosa # 9027 [2, 8]	Test Culture and Results Pseudomonas aeruginosa # 9027 [2, 9]	Test Culture and Results Pseudomonas aeruginosa # 9027 [2, 10]	Test Culture and Results Pseudomonas aeruginosa # 9027 [2, 11]	Test Culture and Results Pseudomonas aeruginosa # 9027 [2, 12]	Test Culture and Results Pseudomonas aeruginosa # 9027 [2, 13]	also measured
ClC=CC[N+]12CN3CN(CN(C3)C1)C2.[Cl-] [Dowicil 200, 1-(3-chloroallyl)-3,5,7-triaza-1-azonia adamantane chloride, reference compound]	+	0	0	0	0	0	0	0	0	0	+	+	+	+	+	+	+	+	0	0	MIC ([1]; NO.6538, 48 h): 200 µg/mL; MIC ([2]; NO.9027, 48 h): 900 µg/mL; Test Culture and Results Aspergillis niger # 16404 [3, 14]: +; Test Culture and Results Aspergillis niger # 16404 [3, 15]: +; Test Culture and Results Aspergillis niger # 16404 [3, 16]: +; Test Culture and Results Aspergillis niger # 16404 [3, 17]: +; Test Culture and Results Aspergillis niger # 16404 [3, 18]: +; Test Culture and Results Aspergillis niger # 16404 [3, 19]: +; Test Culture and Results Aspergillis niger # 16404 [3, 20]: +; Test Culture and Results Aspergillis niger # 16404 [3, 21]: 0; Test Culture and Results Aspergillis niger # 16404 [3, 22]: 0; Test Culture and Results Aspergillis niger # 16404 [3, 23]: 0; MIC [3]: 800 µg/mL
CCCCCCCCCCCC[N+](C)(C)CCCN1C(=O)NC(C)(C)C1=O [Example 1]	0	0	0	0	0	0	0	0	0	0	+	+	+	+	+	0	0	0	0	0	Test Culture and Results Staphyloccus aureus # 6538 ([1]; 1.56 parts per million, 48 hours at 35° C): +; Test Culture and Results Staphyloccus aureus # 6538 ([1]; 3.12 parts per million, 48 hours at 35° C): +; Test Culture and Results Staphyloccus aureus # 6538 ([1]; 6.25 parts per million, 48 hours at 35° C): +; Test Culture and Results Staphyloccus aureus # 6538 ([1]; 12.5 parts per million, 48 hours at 35° C): +; Test Culture and Results Staphyloccus aureus # 6538 ([1]; 25 parts per million, 48 hours at 35° C): 0; Test Culture and Results Staphyloccus aureus # 6538 ([1]; 50 parts per million, 48 hours at 35° C): 0; MIC ([1]; NO.6538, Staph. aureus # 6538, 48 hours at 35° C): 25 µg/mL; MIC ([2]; NO.9027, Pseudo. aerugin # 9027, 48 hours at 35° C): 600 µg/mL; Test Culture and Results Aspergillis niger # 16404 [3, 14]: +; Test Culture and Results Aspergillis niger # 16404 [3, 15]: +; Test Culture and Results Aspergillis niger # 16404 [3, 16]: 0; Test Culture and Results Aspergillis niger # 16404 [3, 17]: 0; Test Culture and Results Aspergillis niger # 16404 [3, 18]: 0; Test Culture and Results Aspergillis niger # 16404 [3, 19]: 0; Test Culture and Results Aspergillis niger # 16404 [3, 20]: 0; Test Culture and Results Aspergillis niger # 16404 [3, 21]: 0; Test Culture and Results Aspergillis niger # 16404 [3, 22]: 0; Test Culture and Results Aspergillis niger # 16404 [3, 23]: 0; MIC ([3]; Asperg. niger # 16404, 5 days at 26° C): 300 µg/mL
